The substances below were run against T1, streptavidin (Streptomyces avidinii, UniProt P22629) (assay: Cy5-streptavidin binding on HotSpot discovery array, 5-mer L-peptide library). Conditions: 5-mer L-peptide library array, Cy5-streptavidin; from average of three arrays.
T1 construct: purchased GE Healthcare (Little Chalfont, UK)
Text: To identify hotspot sequences that bind to streptavidin (SA), we bound Cy5-SA to an array library of 2,476,099 5-mer L-peptides synthesized with 19 of 20 natural amino acids (excluding cysteine). The fluorescence signal intensity was aggregated across three independently synthesized arrays; then the 2,047 peptides with a signal-to-background ratio (S/B) >4 were selected. The data was further filtered to select 1,100 peptides for which signal intensities were highly correlated on all 3 arrays (the percentage of mean deviation to mean was <10%, see Supplementary dataset Table 2A). Most selected sequences (1,019 of 1,100) contained HP, PQ, or PM sequences: their presence would be expected in the well-known HPQ and HPM streptavidin binders[13]–[18].
The comprehensive peptide library included 2,476,099 5-mer peptides synthesized in a single copy with 19 of 20 L- or D-amino acids (excluding cysteine). Libraries were flanked on both N- and C-termini by linkers of 1 or 3 amino acids using a 3:1 glycine-serine mixture.
Cy5™-streptavidin (Cy5-SA) was purchased from GE Healthcare (Little Chalfont, UK). Freshly deprotected arrays were used in each experiment. Streptavidin binding to all arrays was performed with 0.5 µg/ml Cy5-SA either in binding buffer containing 10 mM Tris-HCl (pH 7.4), 1% alkali-soluble casein (EMD Millipore), 0.05% Tween-20 or in 10 mM Tris-HCl (pH 7.4), 4% BSA (Roche, Basel, Switzerland), 0.05% Tween-20 in a 30 mL PAP Jar container (Evergreen Scientific, Vernon, CA) overnight at 4° C. After incubation, arrays were washed in 20 mM Tris-HCl (pH 7.8), 0.2 M NaCl, 1% SDS or 1X TBS (pH 7.4) for 30 sec followed by a 1 min wash in water, and then dried by spinning in a microcentrifuge equipped with an array holder.
Cy5 fluorescence intensity of the arrays was measured with an MS200 scanner (Roche NimbleGen, Madison, WI) at resolution 2 µm, wavelength 635 nm, gain 25%, and laser intensity 100%. Cy5 signal intensities were extracted using Image Extraction Software (Roche NimbleGen). Data pre-processing, normalization, and statistical tests were performed using the language R. Data visualization and analysis was performed with the Spotfire 6.5.0 (Tibco, Boston, MA) software platform. Distance analysis and principle component analysis of distance matrices were performed with the R package PEPLIB[19].

T1 sequence (P22629 25-183): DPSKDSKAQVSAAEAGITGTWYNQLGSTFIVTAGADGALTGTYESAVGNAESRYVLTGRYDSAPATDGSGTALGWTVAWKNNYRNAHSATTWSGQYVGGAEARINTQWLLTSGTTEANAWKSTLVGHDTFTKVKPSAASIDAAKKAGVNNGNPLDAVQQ

Going from VLHPM to LTHPQ, the “S/B (signal to background ratio)” value rises from 32.2 to 150.0.

First: ATHPQ
Second: LAMYH [L-amino acid 5-mer array peptide]
The “S/B (signal to background ratio)” value of the first is higher: 135.7 for the first, 22.8 for the second.

Going from QMHPQ to FMHPQ, the “S/B (signal to background ratio)” value rises from 124.9 to 206.0.

Going from YSHPQ to SQHPM, the “S/B (signal to background ratio)” value falls from 171.8 to 50.2.

Going from HHPQN to VRHPQ, the “S/B (signal to background ratio)” value rises from 150.9 to 151.4.

Going from LSHPM to EHPQY, the “S/B (signal to background ratio)” value falls from 55.5 to 22.3.

First: FHPQQ
Second: AMHPQ
The “S/B (signal to background ratio)” value of the first is lower: 49.0 for the first, 124.0 for the second.

First: NAHPM
Second: PHPMS
The “S/B (signal to background ratio)” value of the first is higher: 36.0 for the first, 30.6 for the second.

Going from STHPM to “LAEYH [L-amino acid 5-mer array peptide]”, the “S/B (signal to background ratio)” value falls from 48.2 to 45.0.

Going from NGHPM to FHPMS, the “S/B (signal to background ratio)” value falls from 54.5 to 46.0.

Going from SHPQF to VHPQQ, the “S/B (signal to background ratio)” value falls from 132.4 to 30.0.

Going from SHHPQ to WFHPQ, the “S/B (signal to background ratio)” value rises from 155.1 to 178.0.

First: MHPMG
Second: YGHPQ
The “S/B (signal to background ratio)” value of the first is lower: 42.9 for the first, 210.5 for the second.

First: NHPQA
Second: NWHPQ
The “S/B (signal to background ratio)” value of the first is lower: 121.8 for the first, 184.8 for the second.

Going from GNHPQ to QHPQH, the “S/B (signal to background ratio)” value falls from 132.4 to 52.4.

First: VDHPM
Second: HGHPQ
The “S/B (signal to background ratio)” value of the first is lower: 26.0 for the first, 129.3 for the second.

First: IAHPQ
Second: QHHPQ
The “S/B (signal to background ratio)” value of the first is lower: 136.2 for the first, 136.3 for the second.

Going from NYHPM to RHPQG, the “S/B (signal to background ratio)” value rises from 52.9 to 124.2.

Compared with IHPQA, GQHPQ is lower in “S/B (signal to background ratio)” value: 150.7 for the first, 134.5 for the second.

Compared with APHPM, SWHPQ is higher in “S/B (signal to background ratio)” value: 38.6 for the first, 171.5 for the second.

First: SNHPQ
Second: HPQFL
The “S/B (signal to background ratio)” value of the first is higher: 144.9 for the first, 42.4 for the second.

Compared with IKHPM, “LAQFH [L-amino acid 5-mer array peptide]” is higher in “S/B (signal to background ratio)” value: 19.0 for the first, 39.7 for the second.

Going from “LAVYH [L-amino acid 5-mer array peptide]” to HSHPQ, the “S/B (signal to background ratio)” value rises from 27.0 to 136.9.

First: YMHPQ
Second: YRHPQ
The “S/B (signal to background ratio)” value of the first is lower: 181.7 for the first, 185.8 for the second.

First: SDHPM
Second: HPQGP
The “S/B (signal to background ratio)” value of the first is lower: 34.7 for the first, 162.1 for the second.

Going from NGHPQ to HPQVD, the “S/B (signal to background ratio)” value falls from 144.3 to 33.5.

Going from PYHPM to LAHPQ, the “S/B (signal to background ratio)” value rises from 54.5 to 168.6.

Compared with HPQNK, GFHPQ is higher in “S/B (signal to background ratio)” value: 28.4 for the first, 181.0 for the second.

Compared with TRHPM, VPHPM is lower in “S/B (signal to background ratio)” value: 53.7 for the first, 45.9 for the second.

Going from HPQGV to KHPMA, the “S/B (signal to background ratio)” value falls from 45.0 to 27.5.

Going from KFHPM to PTHPQ, the “S/B (signal to background ratio)” value rises from 29.8 to 130.7.

Compared with FHPMN, RPHPQ is higher in “S/B (signal to background ratio)” value: 26.9 for the first, 133.3 for the second.

Going from DFHPM to RMHPQ, the “S/B (signal to background ratio)” value rises from 36.4 to 119.1.

Same assay, conditions: 5-mer L-peptide library array, Cy5-streptavidin; from the average of three arrays

First: RWHPM
Second: DHPQN
The “S/B (signal to background ratio)” value of the first is higher: 79.7 for the first, 72.7 for the second.

Compared with GWHPM, NHPMA is lower in “S/B (signal to background ratio)” value: 97.0 for the first, 59.8 for the second.

Compared with VAHPQ, YHPQH is lower in “S/B (signal to background ratio)” value: 118.6 for the first, 62.5 for the second.

Going from QKHPQ to YEHPQ, the “S/B (signal to background ratio)” value rises from 86.0 to 103.2.

Going from FNHPM to KNHPQ, the “S/B (signal to background ratio)” value rises from 96.1 to 104.8.

Compared with HPQNN, MKHPQ is lower in “S/B (signal to background ratio)” value: 112.8 for the first, 84.7 for the second.

First: HEHPQ
Second: HPQVS
The “S/B (signal to background ratio)” value of the first is lower: 76.5 for the first, 77.3 for the second.

Going from FVHPM to HPQNW, the “S/B (signal to background ratio)” value rises from 72.0 to 93.4.

Going from HIHPQ to SHPQG, the “S/B (signal to background ratio)” value rises from 104.7 to 117.3.

Compared with IDHPQ, GEHPQ is lower in “S/B (signal to background ratio)” value: 88.2 for the first, 63.7 for the second.

First: WEHPM
Second: HPQNP
The “S/B (signal to background ratio)” value of the first is lower: 69.6 for the first, 89.0 for the second.

Going from FEHPQ to ESHPQ, the “S/B (signal to background ratio)” value falls from 96.4 to 64.3.

First: THPMA
Second: WHPQH
The “S/B (signal to background ratio)” value of the first is lower: 67.4 for the first, 79.3 for the second.

First: QTHPQ
Second: HPQGS
The “S/B (signal to background ratio)” value of the first is lower: 90.7 for the first, 105.2 for the second.

First: KHHPQ
Second: PKHPQ
The “S/B (signal to background ratio)” value of the first is higher: 96.3 for the first, 80.7 for the second.

FFHPM was tested, and the “S/B (signal to background ratio)” value was 89.2.

Same assay, conditions: 5-mer L-peptide library, from the average of three arrays

KHPMF and GHPQP are the same in “S/B (signal to background ratio)” value: 4.5 for the first, 4.5 for the second.

First: FDEWL [L-amino acid 5-mer array peptide]
Second: HPQLY
The “S/B (signal to background ratio)” value of the first is higher: 4.8 for the first, 4.1 for the second.

First: YWTDG [L-amino acid 5-mer array peptide]
Second: RHPQL
The “S/B (signal to background ratio)” value of the first is higher: 4.7 for the first, 4.6 for the second.

First: FMFMI [L-amino acid 5-mer array peptide]
Second: HPMRF
The “S/B (signal to background ratio)” value of the first is lower: 4.3 for the first, 4.6 for the second.

Going from WHGPQ to WYHHP, the “S/B (signal to background ratio)” value rises from 4.5 to 5.0.

In the case of SHPQL, the “S/B (signal to background ratio)” value is reported as 4.4.

Same assay, conditions: average of three arrays, L-peptide 5-mer library

Going from “MPGHF [L-amino acid 5-mer array peptide]” to “PAWGH [L-amino acid 5-mer array peptide]”, the “S/B (signal to background ratio)” value rises from 5.6 to 11.9.

Compared with “LAMYH [L-amino acid 5-mer array peptide]”, “FDEWL [L-amino acid 5-mer array peptide]” is lower in “S/B (signal to background ratio)” value: 22.8 for the first, 4.8 for the second.

Compared with “LAEYH [L-amino acid 5-mer array peptide]”, “YWTDG [L-amino acid 5-mer array peptide]” is lower in “S/B (signal to background ratio)” value: 45.0 for the first, 4.7 for the second.

First: FMFMI [L-amino acid 5-mer array peptide]
Second: TPSFH [L-amino acid 5-mer array peptide]
The “S/B (signal to background ratio)” value of the first is lower: 4.3 for the first, 6.7 for the second.

Compared with “MLAHF [L-amino acid 5-mer array peptide]”, “LAQFH [L-amino acid 5-mer array peptide]” is higher in “S/B (signal to background ratio)” value: 7.2 for the first, 39.7 for the second.

Compared with “LAVYH [L-amino acid 5-mer array peptide]”, “NWDQW [L-amino acid 5-mer array peptide]” is lower in “S/B (signal to background ratio)” value: 27.0 for the first, 6.7 for the second.

Same assay, conditions: signal to background ratio; 5-mer L-peptide library array, Cy5-streptavidin

Compared with “MPGHF [L-amino acid 5-mer array peptide]”, “PAWGH [L-amino acid 5-mer array peptide]” is higher in S/B: 5.6 for the first, 11.9 for the second.

First: HPMMA
Second: HPMRG
The S/B of the first is lower: 5.3 for the first, 9.3 for the second.

Going from QHPMH to HHPMM, the S/B rises from 12.4 to 18.7.

First: HPQHY
Second: WHPPQ
The S/B of the first is higher: 11.4 for the first, 9.3 for the second.

First: HPMMW
Second: LHPMM
The S/B of the first is higher: 5.7 for the first, 5.2 for the second.

Compared with HPQYR, RHPQE is higher in S/B: 7.0 for the first, 8.3 for the second.

First: MHPMM
Second: QHPQI
The S/B of the first is lower: 9.8 for the first, 14.9 for the second.

Compared with HPMFR, THPMY is higher in S/B: 5.2 for the first, 10.9 for the second.

Compared with HPMYY, WHPQP is higher in S/B: 8.3 for the first, 10.7 for the second.

Compared with EHPQI, AHPMF is higher in S/B: 6.3 for the first, 10.8 for the second.

Going from “TPSFH [L-amino acid 5-mer array peptide]” to “MLAHF [L-amino acid 5-mer array peptide]”, the S/B rises from 6.7 to 7.2.

Compared with HPQYK, AHPQT is higher in S/B: 6.3 for the first, 18.8 for the second.

First: AHPQD
Second: THPQT
The S/B of the first is lower: 10.2 for the first, 11.0 for the second.

Going from PMPDD to EHPQQ, the S/B rises from 8.2 to 16.2.

First: FHPQK
Second: HPQPN
The S/B of the first is higher: 14.2 for the first, 5.5 for the second.

Compared with HPQAL, YHPMY is higher in S/B: 10.3 for the first, 12.0 for the second.

First: HPMRY
Second: HHPQK
The S/B of the first is lower: 5.8 for the first, 18.7 for the second.

Work on “NWDQW [L-amino acid 5-mer array peptide]” yielded a S/B of 6.7.

From article PMC5608804, “Stepwise Evolution Improves Identification of Diverse Peptides Binding to a Protein Target” (Scientific Reports, 2017)
